Reference: PubChem BioAssay (NCI)
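Cultured in 96-well plates, cells were exposed to test compound for 48 hours across five concentrations. GI50 marks 50% less growth. TGI is the concentration that stops growth completely.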

How the values were obtained:
Experiment in all cases: growth of human tumour cells (NCI), 48 h
NCI-H522 lung = tested on: NCI-H522 lung
M14 melanoma = tested on: M14 melanoma
A498 renal = tested on: A498 renal
HS 578T breast = tested on: HS 578T breast
SF-539 CNS = tested on: SF-539 CNS
SF-268 CNS = tested on: SF-268 CNS
HL-60(TB) leukemia = tested on: HL-60(TB) leukemia
MDA-MB-435 = tested on: MDA-MB-435
DU-145 prostate = tested on: DU-145 prostate
UACC-62 melanoma = tested on: UACC-62 melanoma
OVCAR-3 ovarian = tested on: OVCAR-3 ovarian
EKVX NSCLC = tested on: EKVX NSCLC
786-0 renal = tested on: 786-0 renal
RPMI-8226 leukemia = tested on: RPMI-8226 leukemia
SR leukemia = tested on: SR leukemia
SK-MEL-5 melanoma = tested on: SK-MEL-5 melanoma
CCRF-CEM leukemia = tested on: CCRF-CEM leukemia
MOLT-4 leukemia = tested on: MOLT-4 leukemia
KM12 colon = tested on: KM12 colon
HCT-15 colon = tested on: HCT-15 colon
HT29 colon = tested on: HT29 colon
HCT-116 colon = tested on: HCT-116 colon
A549 NSCLC = tested on: A549 NSCLC
SNB-75 CNS = tested on: SNB-75 CNS
COLO 205 colon = tested on: COLO 205 colon
SK-MEL-28 melanoma = tested on: SK-MEL-28 melanoma
UO-31 renal = tested on: UO-31 renal
SNB-19 CNS = tested on: SNB-19 CNS
U251 CNS = tested on: U251 CNS
SN12C renal = tested on: SN12C renal
LOX IMVI melanoma = tested on: LOX IMVI melanoma
NCI-H226 lung = tested on: NCI-H226 lung
CAKI-1 renal = tested on: CAKI-1 renal
TK-10 renal = tested on: TK-10 renal
T-47D breast = tested on: T-47D breast
BT-549 breast = tested on: BT-549 breast
SF-295 CNS = tested on: SF-295 CNS
K-562 leukemia = tested on: K-562 leukemia
HOP-92 NSCLC = tested on: HOP-92 NSCLC
ACHN renal = tested on: ACHN renal
OVCAR-8 ovarian = tested on: OVCAR-8 ovarian
HOP-62 NSCLC = tested on: HOP-62 NSCLC
MDA-MB-231 breast = tested on: MDA-MB-231 breast
RXF 393 renal = tested on: RXF 393 renal
MDA-MB-468 breast = tested on: MDA-MB-468 breast
OVCAR-5 ovarian = tested on: OVCAR-5 ovarian
PC-3 prostate = tested on: PC-3 prostate
OVCAR-4 ovarian = tested on: OVCAR-4 ovarian
UACC-257 melanoma = tested on: UACC-257 melanoma
HCC-2998 colon = tested on: HCC-2998 colon
NCI/ADR-RES ovarian = tested on: NCI/ADR-RES ovarian
MCF7 breast = tested on: MCF7 breast
NCI-H23 lung = tested on: NCI-H23 lung
NCI-H460 lung = tested on: NCI-H460 lung
SK-MEL-2 melanoma = tested on: SK-MEL-2 melanoma
IGROV1 ovarian = tested on: IGROV1 ovarian
SW-620 colon = tested on: SW-620 colon
SK-OV-3 ovarian = tested on: SK-OV-3 ovarian
MALME-3M melanoma = tested on: MALME-3M melanoma

O=C(N/N=C/c1c[nH]c2ccccc12)Nc1ccccc1Cl
GI50 (NCI-H522 lung): 42.2 nM | TGI (NCI-H522 lung): 328 nM | GI50 (M14 melanoma): 111 nM | TGI (M14 melanoma): 11900 nM | GI50 (A498 renal): 5230 nM | TGI (A498 renal): 18500 nM | GI50 (HS 578T breast): 285 nM | TGI (HS 578T breast): 15000 nM | GI50 (SF-539 CNS): 205 nM | TGI (SF-539 CNS): 684 nM | GI50 (SF-268 CNS): 844 nM | TGI (SF-268 CNS): 15000 nM | GI50 (HL-60(TB) leukemia): 102 nM | TGI (HL-60(TB) leukemia): 2630 nM | GI50 (MDA-MB-435): 27 nM | TGI (MDA-MB-435): 89.1 nM | GI50 (DU-145 prostate): 432 nM | TGI (DU-145 prostate): 11400 nM | GI50 (UACC-62 melanoma): 148 nM | TGI (UACC-62 melanoma): 4700 nM | GI50 (OVCAR-3 ovarian): 96 nM | TGI (OVCAR-3 ovarian): 2320 nM | GI50 (EKVX NSCLC): 500 nM | TGI (EKVX NSCLC): 13000 nM | GI50 (786-0 renal): 493 nM | TGI (786-0 renal): 3740 nM | GI50 (RPMI-8226 leukemia): 345 nM | TGI (RPMI-8226 leukemia): 4760 nM | GI50 (SR leukemia): 41.1 nM | TGI (SR leukemia): 12900 nM | GI50 (SK-MEL-5 melanoma): 254 nM | TGI (SK-MEL-5 melanoma): 1370 nM | GI50 (CCRF-CEM leukemia): 178 nM | TGI (CCRF-CEM leukemia): 10200 nM | GI50 (MOLT-4 leukemia): 264 nM | TGI (MOLT-4 leukemia): 12600 nM | GI50 (KM12 colon): 172 nM | TGI (KM12 colon): 5190 nM | GI50 (HCT-15 colon): 65.8 nM | TGI (HCT-15 colon): 12000 nM | GI50 (HT29 colon): 119 nM | TGI (HT29 colon): 986 nM | GI50 (HCT-116 colon): 70.9 nM | TGI (HCT-116 colon): 3820 nM | GI50 (A549 NSCLC): 577 nM | TGI (A549 NSCLC): 13000 nM | GI50 (SNB-75 CNS): 232 nM | TGI (SNB-75 CNS): 2640 nM | GI50 (COLO 205 colon): 292 nM | TGI (COLO 205 colon): 1070 nM | GI50 (SK-MEL-28 melanoma): 2520 nM | TGI (SK-MEL-28 melanoma): 19100 nM | GI50 (UO-31 renal): 471 nM | TGI (UO-31 renal): 14900 nM | GI50 (SNB-19 CNS): 590 nM | TGI (SNB-19 CNS): 16800 nM | GI50 (U251 CNS): 288 nM | TGI (U251 CNS): 11100 nM | GI50 (SN12C renal): 433 nM | TGI (SN12C renal): 6510 nM | GI50 (LOX IMVI melanoma): 274 nM | TGI (LOX IMVI melanoma): 10600 nM | GI50 (NCI-H226 lung): 1690 nM | TGI (NCI-H226 lung): 19600 nM | GI50 (CAKI-1 renal): 257 nM | TGI (CAKI-1 renal): 13800 nM | GI50 (TK-10 renal): 2410 nM | TGI (TK-10 renal): 20600 nM | GI50 (T-47D breast): 386 nM | TGI (T-47D breast): 26600 nM | GI50 (BT-549 breast): 311 nM | TGI (BT-549 breast): 6310 nM | GI50 (SF-295 CNS): 255 nM | TGI (SF-295 CNS): 2520 nM | GI50 (K-562 leukemia): 39.1 nM | TGI (K-562 leukemia): > 33800 nM | GI50 (HOP-92 NSCLC): 869 nM | TGI (HOP-92 NSCLC): 8330 nM | GI50 (ACHN renal): 665 nM | TGI (ACHN renal): 14600 nM | GI50 (OVCAR-8 ovarian): 401 nM | TGI (OVCAR-8 ovarian): 5760 nM | GI50 (HOP-62 NSCLC): 427 nM | TGI (HOP-62 NSCLC): 15600 nM | GI50 (MDA-MB-231 breast): 508 nM | TGI (MDA-MB-231 breast): 4930 nM | GI50 (RXF 393 renal): 292 nM | TGI (RXF 393 renal): 2100 nM | GI50 (MDA-MB-468 breast): 217 nM | TGI (MDA-MB-468 breast): 584 nM | GI50 (OVCAR-5 ovarian): 670 nM | TGI (OVCAR-5 ovarian): 13100 nM | GI50 (PC-3 prostate): 428 nM | TGI (PC-3 prostate): 15400 nM | GI50 (OVCAR-4 ovarian): 2780 nM | TGI (OVCAR-4 ovarian): 29700 nM | GI50 (UACC-257 melanoma): 598 nM | TGI (UACC-257 melanoma): 22500 nM | GI50 (HCC-2998 colon): 608 nM | TGI (HCC-2998 colon): 3490 nM | GI50 (NCI/ADR-RES ovarian): 57.4 nM | TGI (NCI/ADR-RES ovarian): 613 nM | GI50 (MCF7 breast): 230 nM | TGI (MCF7 breast): 14300 nM | GI50 (NCI-H23 lung): 424 nM | TGI (NCI-H23 lung): 6890 nM | GI50 (NCI-H460 lung): 336 nM | TGI (NCI-H460 lung): 6200 nM | GI50 (SK-MEL-2 melanoma): 222 nM | TGI (SK-MEL-2 melanoma): 11300 nM | GI50 (IGROV1 ovarian): 358 nM | TGI (IGROV1 ovarian): 12200 nM | GI50 (SW-620 colon): 117 nM | TGI (SW-620 colon): 16000 nM | GI50 (SK-OV-3 ovarian): 526 nM | TGI (SK-OV-3 ovarian): 20200 nM | GI50 (MALME-3M melanoma): 239 nM | TGI (MALME-3M melanoma): 16000 nM
